Reference: patent US6664250B2, “Lactam derivatives as antiarrhythmic agents” (Bristol-Myers Squibb Co., priority 1998, dated 2003)
Counter-ions that a name gives are not always drawn.

With OCC1c2ccc(OCc3ccccc3)cc2CCN1CCN1CCC(c2ccccc2)CC1 (stereo not shown) (as salt: hydrochloride) the melting point was 205 to 210 °C (dec.).

First: COc1ccc2c(c1)CCN(CCN1CCC(c3ccccc3)CC1)C2=O (as salt: hydrochloride) [Example 1, 3,4-Dihydro-6-methoxy-2-[2-(4-phenyl-1-piperidinyl)ethyl]-1(2H)-isoquinolinone, Monohydrochloride]
Second: COc1ccc2c(c1)CCC(C)(CN1CCC(c3ccccc3)CC1)NC2=O (stereo not shown) [Example 5, 2,3,4,5-Tetrahydro-7-methoxy-3-methyl-3-[(4-phenyl-1-piperidinyl)methyl]-1H-2-benzazepin-1-one]
The melting point of the first is higher: 232 to 235 °C for the first, 127 to 128 °C for the second.

First: COc1ccc2c(c1)CC(C)(CN1CCC(c3ccccc3)CC1)NC2=O (stereo not shown) [Example 6]
Second: CC(C)(C)CC1CCc2ccc(OCc3ccccc3)cc2C(=O)N1 (stereo not shown) [Example 23]
The melting point of the first is lower: 93 to 95 °C for the first, 142 to 143 °C for the second.

First: CCOc1ccc2c(c1)C(=O)NC(CC(C)(C)C)CC2 (stereo not shown) [Example 21]
Second: CCCOc1ccc2c(c1)C(=O)NC(CC(C)(C)C)CC2 (stereo not shown) [Example 22]
The melting point of the first is higher: 159 to 160 °C for the first, 132 to 133 °C for the second.

First: CCCOc1ccc2c(c1)NC(=O)C(CC(C)(C)C)CC2 (stereo not shown) [Example 24]
Second: CCOc1ccc2c(c1)NC(=O)C(CC(C)(C)C)CC2 (stereo not shown) [Example 28]
The melting point of the first is lower: 117 to 119 °C for the first, 136 to 138 °C for the second.

First: CC(C)(C)CC1Cc2ccc(OCc3ccccc3)cc2C(=O)N1 (stereo not shown) [Example 25]
Second: CC(C)(C)CC1CCc2ccc(OCc3ccccc3)cc2NC1=O (stereo not shown) [Example 26]
The melting point of the first is lower: 139 to 140 °C for the first, 150 to 151 °C for the second.

First: CC(C)COc1ccc2c(c1)C(=O)NC(CC(C)(C)C)CC2 (stereo not shown) [Example 27]
Second: CC(C)COc1ccc2c(c1)C(=O)NC(CC(C)(C)C)C2 (stereo not shown) [Example 32]
The melting point of the first is higher: 148 to 149 °C for the first, 142 to 143 °C for the second.

First: CC(C)Oc1ccc2c(c1)C(=O)NC(CC(C)(C)C)CC2 (stereo not shown) [Example 29]
Second: CC(C)Oc1ccc2c(c1)C(=O)NC(CC(C)(C)C)C2 (stereo not shown) [Example 37]
The melting point of the first is lower: 113 to 114 °C for the first, 135 to 136 °C for the second.

First: CCOc1ccc2c(c1)C(=O)NC(CC(C)(C)C)C2 (stereo not shown) [Example 30]
Second: CCCOc1ccc2c(c1)C(=O)NC(CC(C)(C)C)C2 (stereo not shown) [Example 31]
The melting point of the first is higher: 129 to 130 °C for the first, 88 to 90 °C for the second.

First: CC(C)COc1ccc2c(c1)NC(=O)C(CC(C)(C)C)CC2 (stereo not shown) [Example 33]
Second: CC(C)Oc1ccc2c(c1)NC(=O)C(CC(C)(C)C)CC2 (stereo not shown) [Example 34]
The melting point of the first is higher: 139 to 140 °C for the first, 132 to 134 °C for the second.

First: CCCOc1ccc2c(c1)NC(=O)C(CC(C)(C)C)C2 (stereo not shown) [Example 36]
Second: COc1ccc2c(c1)NC(=O)C(CC(C)(C)C)C2 (stereo not shown) [Example 37]
The melting point of the first is lower: 109 to 110 °C for the first, 118 to 119 °C for the second.

COc1ccc2c(c1)C(=O)NC(CC(C)(C)C)C2 (stereo not shown) [Example 38] gave a melting point of 113 to 114 °C.
